From US9434711B2 (Janssen Pharmaceutica, NV, priority 2007, dated 2016) come the findings set out here.

The target in this experiment is canine TRPM8 (Canis lupus familiaris, UniProt Q1A7N1). The experiment can be described thus: In Vitro Canine TRPM8 Functional Assay (Ca2+ fluorescence, icilin activation). The conditions noted are these: for pIC50: HEK293 cells stably expressing canine TRPM8, icilin activation, eight-point dose-response, read-out: IC50; for inhibition at 0.5 µM: compound at 0.5 μM, read-out: % Inh @ 0.5; for inhibition at 0.5 µM / inhibition at 0.2 µM: canine TRPM8, icilin activation; for inhibition at 0.2 µM: compound at 0.2 μM, read-out: % Inh @ 0.2. Format: cell-based. The method, boiled down: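 Eight-point dose-response curves, each point averaging quadruplicate wells, gave EC50 or IC50. Canine TRPM8-expressing HEK293 cells, dye-loaded (Calcium 3), were pre-exposed 5 min to compound, then challenged with icilin at roughly EC80; intracellular Ca2+ read by FLIPR or FDSS fluorescence.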

pIC50: −log10 of the molar value.

Chain of canine TRPM8 (Q1A7N1 1-1104): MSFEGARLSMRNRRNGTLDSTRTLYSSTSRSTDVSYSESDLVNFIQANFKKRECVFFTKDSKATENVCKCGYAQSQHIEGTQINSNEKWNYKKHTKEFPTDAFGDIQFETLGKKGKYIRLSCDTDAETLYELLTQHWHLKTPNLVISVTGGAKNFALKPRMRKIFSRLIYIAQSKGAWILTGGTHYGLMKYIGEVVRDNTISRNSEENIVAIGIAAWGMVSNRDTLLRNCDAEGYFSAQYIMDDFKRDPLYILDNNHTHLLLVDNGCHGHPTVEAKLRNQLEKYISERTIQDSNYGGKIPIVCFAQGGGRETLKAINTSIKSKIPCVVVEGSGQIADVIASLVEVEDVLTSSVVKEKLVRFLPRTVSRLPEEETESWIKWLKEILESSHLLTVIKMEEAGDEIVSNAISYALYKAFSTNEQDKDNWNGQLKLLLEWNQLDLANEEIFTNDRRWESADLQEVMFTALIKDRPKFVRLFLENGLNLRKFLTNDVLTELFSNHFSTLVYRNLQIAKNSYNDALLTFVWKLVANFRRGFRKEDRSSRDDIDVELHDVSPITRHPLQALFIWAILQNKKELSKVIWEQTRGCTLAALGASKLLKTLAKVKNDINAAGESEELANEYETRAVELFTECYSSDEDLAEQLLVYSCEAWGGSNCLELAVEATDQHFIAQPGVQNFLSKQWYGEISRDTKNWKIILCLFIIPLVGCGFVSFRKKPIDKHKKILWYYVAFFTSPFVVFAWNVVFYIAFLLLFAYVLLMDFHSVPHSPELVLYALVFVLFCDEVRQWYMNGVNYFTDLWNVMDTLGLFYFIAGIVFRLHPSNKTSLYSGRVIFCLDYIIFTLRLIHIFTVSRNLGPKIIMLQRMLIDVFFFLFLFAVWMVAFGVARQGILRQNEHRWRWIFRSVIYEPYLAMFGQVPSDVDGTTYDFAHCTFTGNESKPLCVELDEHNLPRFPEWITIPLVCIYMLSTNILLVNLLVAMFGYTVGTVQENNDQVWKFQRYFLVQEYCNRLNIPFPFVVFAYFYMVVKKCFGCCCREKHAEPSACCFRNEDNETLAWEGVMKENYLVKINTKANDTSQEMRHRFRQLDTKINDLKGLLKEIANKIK

One may read the pIC50 as the IC50 on a negative log10 scale, so that one unit is a factor of ten. In the case of `CC(=O)c1c(N(Cc2ccc(F)c(F)c2)S(=O)(=O)c2ccccc2)sc2ccccc12` [Compound 204, N-(3-Acetyl-benzo[b]thiophen-2-yl)-N-(3,4-difluoro-benzyl)-benzenesulfonamide], the pIC50 was 8.22 and the inhibition at 0.5 µM stood at 96%.

With `CCS(=O)(=O)N(Cc1ccc(F)c(C(F)(F)F)c1)c1sc2ccccc2c1C(C)=O` [Compound 205, N-(3-Acetyl-benzo[b]thiophen-2-yl)-N-(4-fluoro-3-trifluoromethyl-benzyl)-ethanesulfonamide], the pIC50 was 8.52 and the inhibition at 0.5 µM came out at 96%.

Regarding `O=Cc1c(N(Cc2ccc(F)c(F)c2)S(=O)(=O)c2ccccc2)sc2ccccc12` [Compound 206, N-(3,4-Difluoro-benzyl)-N-(3-formyl-benzo[b]thiophen-2-yl)-benzenesulfonamide], the pIC50 is 7.89 and the inhibition at 0.2 µM was determined as 98%.

For `O=Cc1c(N(Cc2ccc(F)c(C(F)(F)F)c2)S(=O)(=O)c2ccccc2)sc2ccccc12` [Compound 207, N-(4-Fluoro-3-trifluoromethyl-benzyl)-N-(3-formyl-benzo[b]thiophen-2-yl)-benzenesulfonamide], the pIC50 is 7.80 and the inhibition at 0.2 µM was 98%.

In the case of `CS(=O)(=O)N(Cc1ccc(F)c(C(F)(F)F)c1)c1sc2ccccc2c1C=O` [Compound 208, N-(4-Fluoro-3-trifluoromethyl-benzyl)-N-(3-formyl-benzo[b]thiophen-2-yl)-methanesulfonamide], the pIC50 is 7.92 and the inhibition at 0.2 µM came to 96%.

On to `CS(=O)(=O)N(Cc1ccc(F)c(F)c1)c1sc2ccccc2c1C=O` [Compound 209, N-(3,4-Difluoro-benzyl)-N-(3-formyl-benzo[b]thiophen-2-yl)-methanesulfonamide], for which the pIC50 is 7.49 and the inhibition at 0.2 µM came to 98%.

Turning to `CCS(=O)(=O)N(Cc1ccc(F)c(C(F)(F)F)c1)c1sc2ccccc2c1C=O` [Compound 210, N-(4-Fluoro-3-trifluoromethyl-benzyl)-N-(3-formyl-benzo[b]thiophen-2-yl)-ethanesulfonamide], the pIC50 is 8.10 and the inhibition at 0.2 µM was found to be 91%.

Regarding `COC(=O)c1ccc(S(=O)(=O)N(Cc2ccc(F)c(C(F)(F)F)c2)c2sc3ccccc3c2C=O)cc1` [Compound 211, N-(3-Formyl-benzo[b]thiophen-2-yl)-N-(4-fluoro-3-trifluoromethyl-benzyl)-4-carbomethoxy-benzenesulfonamide], the pIC50 was 7.52 and the inhibition at 0.2 µM worked out at 80%.

`CCS(=O)(=O)N(Cc1ccc(F)c(F)c1)c1sc2ccccc2c1C=O` [Compound 212, N-(3,4-Difluoro-benzyl)-N-(3-formyl-benzo[b]thiophen-2-yl)-ethanesulfonamide]: the pIC50 is 7.94 and the inhibition at 0.2 µM came to 101%.

For `O=S(=O)(c1ccccc1)N(Cc1ccc(F)c(F)c1)c1sc2ccccc2c1CO` [Compound 213, N-(3,4-Difluoro-benzyl)-N-(3-hydroxymethyl-benzo[b]thiophen-2-yl)-benzenesulfonamide], the negative-log IC50 (pIC50) was 8.85 and the inhibition at 0.2 µM came to 95%.

For the compound `O=S(=O)(c1ccccc1)N(Cc1ccc(F)c(C(F)(F)F)c1)c1sc2ccccc2c1CO` [Compound 214, N-(4-Fluoro-3-trifluoromethyl-benzyl)-N-(3-hydroxymethyl-benzo[b]thiophen-2-yl)-benzenesulfonamide], the pIC50 was 8.68 and the inhibition at 0.2 µM is 97%.

`CS(=O)(=O)N(Cc1ccc(F)c(C(F)(F)F)c1)c1sc2ccccc2c1CO` [Compound 215, N-(4-Fluoro-3-trifluoromethyl-benzyl)-N-(3-hydroxymethyl-benzo[b]thiophen-2-yl)-methanesulfonamide]: the pIC50 is 8.22 and the inhibition at 0.2 µM was found to be 101%.

On to `CS(=O)(=O)N(Cc1ccc(F)c(F)c1)c1sc2ccccc2c1CO` [Compound 216, N-(3,4-Difluoro-benzyl)-N-(3-hydroxymethyl-benzo[b]thiophen-2-yl)-methanesulfonamide], for which the pIC50 is 7.85 and the inhibition at 0.2 µM worked out at 100%.

Consider `CCS(=O)(=O)N(Cc1ccc(F)c(C(F)(F)F)c1)c1sc2ccccc2c1CO` [Compound 217, N-(4-Fluoro-3-trifluoromethyl-benzyl)-N-(3-hydroxymethyl-benzo[b]thiophen-2-yl)-ethanesulfonamide], for which the pIC50 was 8.52 and the inhibition at 0.2 µM came to 88%.

Turning to `O=C(O)c1ccc(S(=O)(=O)N(Cc2ccc(F)c(C(F)(F)F)c2)c2sc3ccccc3c2CO)cc1` [Compound 218, N-(3-Hydroxymethyl-benzo[b]thiophen-2-yl)-N-(4-fluoro-3-trifluoromethyl-benzyl)-4-carboxy-benzenesulfonamide], the pIC50 is 9.00 and the inhibition at 0.2 µM was determined as 90%.

With `CCS(=O)(=O)N(Cc1ccc(F)c(F)c1)c1sc2ccccc2c1CO` [Compound 219, N-(3,4-Difluoro-benzyl)-N-(3-hydroxymethyl-benzo[b]thiophen-2-yl)-ethanesulfonamide], the pIC50 was 8.11 and the inhibition at 0.2 µM was found to be 101%.

For the compound `CCS(=O)(=O)N(Cc1ccc(F)c(C(F)(F)F)c1)c1sc2ccccc2c1C(C)O` (stereo not drawn) [Compound 220, N-(4-Fluoro-3-trifluoromethyl-benzyl)-N-[3-(1-hydroxy-ethyl)-benzo[b]thiophen-2-yl]-ethanesulfonamide], the pIC50 was 8.92, the inhibition at 0.2 µM came out at 98% and the inhibition at 0.5 µM was determined as 99%.

As to `CCS(=O)(=O)N(Cc1ccc(F)c(F)c1)c1sc2ccccc2c1C(C)O` (stereo not drawn) [Compound 221, N-(3,4-Difluoro-benzyl)-N-[3-(1-hydroxy-ethyl)-benzo[b]thiophen-2-yl]-ethanesulfonamide], the pIC50 is 8.30 and the inhibition at 0.2 µM was determined as 92%.

`CC(O)c1c(N(Cc2ccc(F)c(F)c2)S(=O)(=O)c2ccccc2)sc2ccccc12` (stereo not drawn) [Compound 222, N-(3,4-Difluoro-benzyl)-N-[3-(1-hydroxy-ethyl)-benzo[b]thiophen-2-yl]-benzenesulfonamide]: the pIC50 was 8.77 and the inhibition at 0.2 µM turned out to be 95%.

As for `CC(O)c1c(N(Cc2ccc(F)c(C(F)(F)F)c2)S(=O)(=O)c2ccccc2)sc2ccccc12` (stereo not drawn) [Compound 223, N-(4-Fluoro-3-trifluoromethyl-benzyl)-N-[3-(1-hydroxy-ethyl)-benzo[b]thiophen-2-yl]-benzenesulfonamide], the pIC50 was 8.64 and the inhibition at 0.2 µM worked out at 96%.

For the compound `CC(O)c1c(N(Cc2ccc(F)c(C(F)(F)F)c2)S(C)(=O)=O)sc2ccccc12` (stereo not drawn) [Compound 224, N-(4-Fluoro-3-trifluoromethyl-benzyl)-N-[3-(1-hydroxy-ethyl)-benzo[b]thiophen-2-yl]-methanesulfonamide], the pIC50 was 9.00 and the inhibition at 0.2 µM is 100%.

As for `CC(O)c1c(N(Cc2ccc(F)c(F)c2)S(C)(=O)=O)sc2ccccc12` (stereo not drawn) [Compound 225, N-(3,4-Difluoro-benzyl)-N-[3-(1-hydroxy-ethyl)-benzo[b]thiophen-2-yl]-methanesulfonamide], the pIC50 was 8.40 and the inhibition at 0.2 µM came to 98%.

For `CCS(=O)(=O)N(Cc1ccc(F)c(F)c1)c1sc2ccccc2c1C(C)(C)O` [Compound 226, N-(3,4-Difluoro-benzyl)-N-[3-(1-hydroxy-1-methyl-ethyl)-benzo[b]thiophen-2-yl]-ethanesulfonamide], the pIC50 is 8.70 and the inhibition at 0.2 µM is 99%.

Regarding `CCS(=O)(=O)N(Cc1ccc(F)c(C(F)(F)F)c1)c1sc2ccccc2c1C(C)(C)O` [Compound 227, N-(4-Fluoro-3-trifluoromethyl-benzyl)-N-[3-(1-hydroxy-1-methyl-ethyl)-benzo[b]thiophen-2-yl]-ethanesulfonamide], the pIC50 is 9.22 and the inhibition at 0.2 µM was 101%.

Regarding `CC(=O)c1c(N(Cc2ccc(F)c(C(F)(F)F)c2)S(C)(=O)=O)sc2ccccc12` [Compound 228, N-(3-Acetyl-benzo[b]thiophen-2-yl)-N-(4-fluoro-3-trifluoromethyl-benzyl)-methanesulfonamide], the pIC50 is 8.22 and the inhibition at 0.2 µM was 101%.

On to `CC(=O)c1c(N(Cc2ccc(F)c(F)c2)S(C)(=O)=O)sc2ccccc12` [Compound 229, N-(3-Acetyl-benzo[b]thiophen-2-yl)-N-(3,4-difluoro-benzyl)-methanesulfonamide], for which the pIC50 is 7.68 and the inhibition at 0.2 µM was 99%.

In the case of `CCOC(=O)CCCCCN(c1sc2ccccc2c1Br)S(=O)(=O)c1ccccc1` [Compound 230, N-(3-Bromo-benzo[b]thiophen-2-yl)-N-(5-carboethoxy-pentyl)benzenesulfonamide], the pIC50 was 7.89 and the inhibition at 0.2 µM amounted to 100%.

Take `CCCCN(c1sc2ccccc2c1Br)S(=O)(=O)c1ccccc1` [Compound 231, N-(3-Bromo-benzo[b]thiophen-2-yl)-N-(butyl)-benzenesulfonamide]: the pIC50 is 7.54 and the inhibition at 0.5 µM is 95%.

`O=S(=O)(c1ccccc1)N(CC1CCCCC1)c1sc2ccccc2c1Br` [Compound 232, N-(3-Bromo-benzo[b]thiophen-2-yl)-N-(cyclohexylmethyl)-benzenesulfonamide]: the negative logarithm of the IC50 (pIC50) was 7.13 and the inhibition at 0.5 µM amounted to 94%.

As for `O=S(=O)(c1ccccc1)N(CCc1ccccc1)c1sc2ccccc2c1Br` [Compound 233, N-(3-Bromo-benzo[b]thiophen-2-yl)-N-(phenethyl)-benzenesulfonamide], the pIC50 was 7.66 and the inhibition at 0.5 µM stood at 93%.

Take `CC(C)(C)OCCN(c1sc2ccccc2c1Br)S(=O)(=O)c1ccccc1` [Compound 234, N-(3-Bromo-benzo[b]thiophen-2-yl)-N-(2-tert-butoxy-ethyl)-benzenesulfonamide]: the pIC50 was 8.00 and the inhibition at 0.5 µM turned out to be 93%.
